Tests used:
Tenebrio molitor L = assay: Tenebrio test (topical application to pupae, morphological inhibition of adult characters); type: in vivo, Tenebrio molitor L (yellow mealworm); conditions: Table I; topical, acetone solution, 0.5 to 2 hours old pupae (150 mg), 27° C, 70% RH
Method: (§1) The biological tests are examplified by tests on the yellow mealworm, Tenebrio molitor L, Galleria mellonella L, Culex pipiens L, Aedes aegypti L and Drosophila melanogaster L.
Tenebrio test: The material in question is applied topically to the abdomen of 0.5 to 2 hours old pupae of the said species, as a solution in acetone. The pupae are held at 27° C and 70% RH, ecdysis occuring 5 to 7 days later. The degree of inhibition of adult characters is referred to an arbitrary scale, where a morphologically perfect adult is given the character 0%, and a perfect second pupae 100%. In Table 1 is given the morphological inhibition dose 50% (ID 50 morph.) for some of the chemicals invented, in μg per standard pupa (150 mg). ID 50 morph. refers to specimens showing predominantly adult characters in the front part, pupal characters in the abdomen.
ID50 morph is as said above the dose causing development of individuals showing predominantly adult characters in the front part and pupal characters in the abdomen. It is known that ID50 -doses in general are 10 times greater than ED50 -doses.

Culex pipiens L = assay: Culex test (mature larvae, loss of 50% of test animals); type: in vivo; conditions: Table I, read-out: IC-50 eclos.
Method: The biological tests are examplified by tests on the yellow mealworm, Tenebrio molitor L, Galleria mellonella L, Culex pipiens L, Aedes aegypti L and Drosophila melanogaster L. Culex test: The compounds are tested on mature larvae. The concentration (IC-50 eclos.) is given in ppm.

[1] = system: Drosophila melanogaster L; assay: Drosophila test (compound in agar based food, pupae which fail in ecdysis); type: in vivo; conditions: Table I, in artificial agar based food, pupae failing in ecdysis
Method: as §1
Drosophila test: One ml of acetone solution of the compound to be tested is mixed with an artificial agar based food mixture just before this solidifies. Ten less than one day old adult flies -- five of each sex -- are added, and all abnormalities observed for two generations. Juvenile hormone activity is especially noted in the pupae which fail in ecdysis. EC50 -eclos. is given in ppm.

Aedes aegypti L = assay: Aedes test (same test as for Culex); type: in vivo; conditions: Table I, mature larvae, loss of 50% of test animals, read-out: IC-50 eclos
Method: as §1
Culex test: The compounds are tested on mature larvae. The concentration (IC-50 eclos.) is given in ppm.
Aedes test: The same test as for Culex.

Tenebrio = conditions: Table II, known compounds; dose causing abnormal development of 50% of treated pupae; data from Nature, Vol. 232, Aug. 13, 1971; cited from earlier work

Work on CCOC(C)(C)CCCC(C)CCOc1ccc(CC)nc1 (centres unmarked) [Compound 39, 7-Ethoxy-3,7-dimethyl-1l-(96'-ethyl-3'-pyridyloxy)-octane] yielded an ID-50 morph. (Tenebrio molitor L) of 0.01 μg/pupa, an IC50 for inhibition of adult emergence (eclosion) (Culex pipiens L) of less than 10 µg/mL and an EC-50 eclos [1] greater than 100 ppm. It also gave an IC50 (inhibition of eclosion) (Aedes aegypti L) of 0.5 µg/mL.
For C/C(=C\COc1ccc(C)cc1)CCC1OC1(C)C (centres unmarked) [R CH3, n 1], the ED50 (Tenebrio) is given as 0,05 μg/pupa.

From patent US4061757A, “Compounds having juvenile hormone activity” (A/S Cheminova, priority 1971, dated 1977)
